Test results: US12303592B2, “Formulations for parenteral delivery of compounds and uses thereof” (Wyeth, LLC, priority 2006, dated 2025)

Tests used:
[1] = Effect of 1 mM sodium tungstate on subcutaneous formulation (Table 16), HPLC Method A; assay type: physicochemical; on Ring Contraction Degradant: key: BRL=below recordable limit
[2] = Buffer compatibility: stability of MNTX in pH 7 phosphate or glycine solution (Tables 9, 10), HPLC Method A; assay type: physicochemical
From the text: Evaluation of phosphate buffers solution stability. We have also assessed different buffers to determine compatibility and whether various conditions would convey further stability to methylnaltrexone solutions. Table 9 and Table 10 show results (HPLC Method A) of total degradant formation over time in methylnaltrexone solutions prepared in phosphate solution (Table 9), and glycine solution (Table 10). We found at pH 7, glycine provides better stability characteristics to samples than phosphate.

[3] = white crystalline powder from Mallinckrodt; cited from earlier work

C[N+]1(CC2CC2)CC[C@]23c4c5ccc(O)c4O[C@H]2C(=O)CC[C@@]3(O)[C@H]1C5 (stereo partly shown) [MNTX, methylnaltrexone bromide]
7-Dihydroxy MNTX ([1]; 40° C., 1 hour): BRL
O-Methyl MNTX ([1]; 40° C., 1 hour): 0.12
Ring Contraction Degradant ([1]; 40° C., 1 hour): BRL
Total ([1]; 40° C., 1 hour): 0.12
7-Dihydroxy MNTX ([1]; 40° C., 2 hours): 0.02
O-Methyl MNTX ([1]; 40° C., 2 hours): 0.12
Ring Contraction Degradant ([1]; 40° C., 2 hours): BRL
Total ([1]; 40° C., 2 hours): 0.14
7-Dihydroxy MNTX ([1]; 40° C., 3 hours): 0.02
O-Methyl MNTX ([1]; 40° C., 3 hours): 0.12
Ring Contraction Degradant ([1]; 40° C., 3 hours): BRL
Total ([1]; 40° C., 3 hours): 0.14
7-Dihydroxy MNTX ([1]; 40° C., 4 hours): 0.02
O-Methyl MNTX ([1]; 40° C., 4 hours): 0.12
Ring Contraction Degradant ([1]; 40° C., 4 hours): BRL
Total ([1]; 40° C., 4 hours): 0.14
7-Dihydroxy MNTX ([1]; 40° C., 5 hours): 0.03
O-Methyl MNTX ([1]; 40° C., 5 hours): 0.12
Ring Contraction Degradant ([1]; 40° C., 5 hours): BRL
Total ([1]; 40° C., 5 hours): 0.15
7-Dihydroxy MNTX ([1]; 40° C., Initial): BRL
O-Methyl MNTX ([1]; 40° C., Initial): 0.12
Ring Contraction Degradant ([1]; 40° C., Initial): BRL
Total ([1]; 40° C., Initial): 0.12
7-Dihydroxy MNTX ([1]; Room Temperature, 1 hour): BRL
O-Methyl MNTX ([1]; Room Temperature, 1 hour): 0.12
Ring Contraction Degradant ([1]; Room Temperature, 1 hour): BRL
Total ([1]; Room Temperature, 1 hour): 0.12
7-Dihydroxy MNTX ([1]; Room Temperature, 2 hours): 0.02
O-Methyl MNTX ([1]; Room Temperature, 2 hours): 0.12
Ring Contraction Degradant ([1]; Room Temperature, 2 hours): BRL
Total ([1]; Room Temperature, 2 hours): 0.14
7-Dihydroxy MNTX ([1]; Room Temperature, 3 hours): 0.02
O-Methyl MNTX ([1]; Room Temperature, 3 hours): 0.12
Ring Contraction Degradant ([1]; Room Temperature, 3 hours): BRL
Total ([1]; Room Temperature, 3 hours): 0.14
7-Dihydroxy MNTX ([1]; Room Temperature, 4 hours): 0.02
O-Methyl MNTX ([1]; Room Temperature, 4 hours): 0.12
Ring Contraction Degradant ([1]; Room Temperature, 4 hours): BRL
Total ([1]; Room Temperature, 4 hours): 0.14
7-Dihydroxy MNTX ([1]; Room Temperature, 5 hours): 0.02
O-Methyl MNTX ([1]; Room Temperature, 5 hours): 0.12
Ring Contraction Degradant ([1]; Room Temperature, 5 hours): BRL
Total ([1]; Room Temperature, 5 hours): 0.14
7-Dihydroxy MNTX ([1]; Room Temperature, Initial): BRL
O-Methyl MNTX ([1]; Room Temperature, Initial): 0.12
Ring Contraction Degradant ([1]; Room Temperature, Initial): BRL
Total ([1]; Room Temperature, Initial): 0.12
Appearance and Description ([2]; pH 7, 0.02M Glycine Solution, 40° C., r24 0 time, r26 1 day, r28 2 days, r30 6 days, r32 9 days, r34 14 days, r36 21 days): Clear, colorless
Appearance and Description ([2]; pH 7, 0.02M Glycine Solution, Room Temperature, r8 0 time, r11 1 day, r13 2 days, r15 6 days, r18 9 days, r20 14 days, r22 21 days): Clear, colorless
Appearance and Description ([2]; pH 7, 0.02M Phosphate Solution, 40° C., r22 0 time, r24 1 day, r26 2 days, r28 6 days, r30 9 days, r32 14 days, r35 21 days, elapsed 0 time): Clear, colorless
Appearance and Description ([2]; pH 7, 0.02M Phosphate Solution, 60° C., r38 0 time, r40 1 day, r42 2 days, r44 6 days, r46 9 days, r48 14 days, r50 21 days, elapsed 0 time): Clear, colorless
Appearance and Description ([2]; pH 7, 0.02M Phosphate Solution, 60° C., r38 0 time, r40 1 day, r42 2 days, r44 6 days, r46 9 days, r48 14 days, r50 21 days, elapsed 9 days): Clear, yellow
Appearance and Description ([2]; pH 7, 0.02M Phosphate Solution, Room Temperature, r8 0 time, r10 1 day, r12 2 days, r14 6 days, r16 9 days, r18 14 days, r20 21 days): Clear, colorless
solubility in water [3]: freely soluble in water
